According to patent publication US20150105252A1, “SUBSTITUTED PYRAZOLES AS HERBICIDES” (E I DU PONT DE NEMOURS AND COMPANY, priority 2013, published 2015):

What was measured:
Details in all cases: scale 0 to 100
bromegrass, downy = assay: Test D postemergence; assay type: in vivo, Bromus tectorum
Source text: (§1) Seeds of plant species selected from bluegrass (annual bluegrass, Poa annua), blackgrass (Alopecurus myosuroides), canarygrass (littleseed canarygrass, Phalaris minor), chickweed (common chickweed, Stellaria media), galium (catchweed bedstraw, Galium aparine), bromegrass, downy (downy bromegrass, Bromus tectorum), field poppy (Papaver rhoeas), field violet (Viola arvensis), foxtail, green (green foxtail, Setaria viridis), deadnettle (henbit deadnettle, Lamium amplexicaule), ryegrass, Italian (Italian ryegrass, Lolium multiflorum), kochia (Kochia scoparia), lambsquarters (Chenopodium album), oilseed rape (Brassica napus), pigweed (redroot pigweed, Amaranthus retroflexus), chamomile (scentless chamomile, Matricaria inodora), speedwell (bird's-eye speedwell, Veronica persica), barley, spring (spring barley, Hordeum vulgare), wheat, spring (spring wheat, Triticum aestivum), buckwheat, wild (wild buckwheat, Polygonum convolvulus), mustard, wild (wild mustard, Sinapis arvensis), oat, wild (wild oat, Avena fatua), radish, wild (wild radish, Raphanus raphanistrum), windgrass (Apera spica-venti), Russian thistle (Salsola kali), barley, winter (winter barley, Hordeum vulgare), and wheat, winter (winter wheat, Triticum aestivum) were planted into a silt loam soil and treated preemergence with test chemicals formulated in a non-phytotoxic solvent mixture which included a surfactant.
(§2) At the same time, these species were planted in pots containing Redi-Earth® planting medium (Scotts Company, 14111 Scottslawn Road, Marysville, Ohio 43041) comprising spaghnum peat moss, vermiculite, wetting agent and starter nutrients and treated with postemergence applications of the test chemicals formulated in the same manner. Plants ranged in height from 2 to 18 cm (1- to 4-leaf stage). Treated plants and controls were maintained in a controlled growth environment for 14 to 21 days after which time all species were compared to controls and visually evaluated. Plant response ratings, summarized in Table D, are based on a scale of 0 to 100 where 0 is no effect and 100 is complete control. A dash (-) response means no test result.

kochia = assay: Test D preemergence; assay type: in vivo, Kochia scoparia
How it was run: (§3)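 Visual 0-100 rating (100 = complete control) against untreated plants, made 14 to 21 days after treatment in a controlled environment. Compounds, formulated with surfactant in non-phytotoxic solvent, were applied either to seeds just sown in silt loam or to 1- to 4-leaf plants (2 to 18 cm) grown in peat-based medium.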

windgrass = assay: Test D postemergence; assay type: in vivo, Apera spica-venti
How it was run: as §3

barley, spring = assay: Test D preemergence; assay type: in vivo, Hordeum vulgare
Source text: as §1, §2

barley, winter = assay: Test D preemergence; assay type: in vivo, Hordeum vulgare
Source text: as §1, §2

chickweed = assay: Test D postemergence; assay type: in vivo, Stellaria media
Source text: as §1, §2

buckwheat, wild = assay: Test D preemergence; assay type: in vivo, Polygonum convolvulus
How it was run: as §3

galium = assay: Test D postemergence; assay type: in vivo, Galium aparine
How it was run: as §3

pigweed = assay: Test D preemergence; assay type: in vivo, Amaranthus retroflexus
How it was run: as §3

CCCc1cc(C(=O)NCC(F)(F)F)nn1Cc1cc(C(F)(F)F)nn1C [Compound 138]
Bromegrass, Downy plant response rating (bromegrass, downy; Postemergence, 31 g ai/ha): 10
Bromegrass, Downy plant response rating (bromegrass, downy; Postemergence, 125 g ai/ha): 30
Bromegrass, Downy plant response rating (bromegrass, downy; Postemergence, 250 g ai/ha): 20
Bromegrass, Downy plant response rating (bromegrass, downy; postemergence, 62 g ai/ha): 10
Plant response rating, Kochia (kochia; 62 g ai/ha): 95
Plant response rating, Kochia (kochia; 125 g ai/ha): 100
Plant response rating, Kochia (kochia; 250 g ai/ha): 100
Windgrass plant response rating (windgrass; Postemergence, 31 g ai/ha): 20
Windgrass plant response rating (windgrass; Postemergence, 125 g ai/ha): 35
Windgrass plant response rating (windgrass; Postemergence, 250 g ai/ha): 60
Windgrass plant response rating (windgrass; postemergence, 62 g ai/ha): 20
Plant response rating, Barley, Spring (barley, spring; 31 g ai/ha): 0
Plant response rating, Barley, Spring (barley, spring; 62 g ai/ha): 5
Plant response rating, Barley, Spring (barley, spring; 125 g ai/ha): 40
Plant response rating, Barley, Spring (barley, spring; 250 g ai/ha): 75
Plant response rating, Barley, Winter (barley, winter; 31 g ai/ha): 5
Plant response rating, Barley, Winter (barley, winter; 62 g ai/ha): 35
Plant response rating, Barley, Winter (barley, winter; 125 g ai/ha): 60
Plant response rating, Barley, Winter (barley, winter; 250 g ai/ha): 70
Chickweed plant response rating (chickweed; Postemergence, 31 g ai/ha): 70
Chickweed plant response rating (chickweed; Postemergence, 125 g ai/ha): 80
Chickweed plant response rating (chickweed; Postemergence, 250 g ai/ha): 75
Chickweed plant response rating (chickweed; postemergence, 62 g ai/ha): 70
Plant response rating, Buckwheat, Wild (buckwheat, wild; 31 g ai/ha): 45
Plant response rating, Buckwheat, Wild (buckwheat, wild; 62 g ai/ha): 50
Plant response rating, Buckwheat, Wild (buckwheat, wild; 125 g ai/ha): 70
Plant response rating, Buckwheat, Wild (buckwheat, wild; 250 g ai/ha): 100
Galium plant response rating (galium; Postemergence, 31 g ai/ha): 80
Galium plant response rating (galium; Postemergence, 125 g ai/ha): 100
Galium plant response rating (galium; Postemergence, 250 g ai/ha): 100
Galium plant response rating (galium; postemergence, 62 g ai/ha): 80
Plant response rating, Pigweed (pigweed; 62 g ai/ha): 100
Plant response rating, Pigweed (pigweed; 125 g ai/ha): 100
Plant response rating, Pigweed (pigweed; 250 g ai/ha): 100

CCOc1cc(C(=O)NC2CC2)nn1Cc1ccnc(C(F)(F)F)c1 [Compound 189]
Bromegrass, Downy plant response rating (bromegrass, downy; Postemergence, 31 g ai/ha): 15
Bromegrass, Downy plant response rating (bromegrass, downy; Postemergence, 125 g ai/ha): 15
Bromegrass, Downy plant response rating (bromegrass, downy; Postemergence, 250 g ai/ha): 20
Bromegrass, Downy plant response rating (bromegrass, downy; postemergence, 62 g ai/ha): 15
Plant response rating, Kochia (kochia; 62 g ai/ha): 100
Plant response rating, Kochia (kochia; 125 g ai/ha): 100
Plant response rating, Kochia (kochia; 250 g ai/ha): 100
Windgrass plant response rating (windgrass; Postemergence, 31 g ai/ha): 15
Windgrass plant response rating (windgrass; Postemergence, 125 g ai/ha): 20
Windgrass plant response rating (windgrass; Postemergence, 250 g ai/ha): 35
Windgrass plant response rating (windgrass; postemergence, 62 g ai/ha): 15
Plant response rating, Barley, Spring (barley, spring; 31 g ai/ha): 0
Plant response rating, Barley, Spring (barley, spring; 62 g ai/ha): 40
Plant response rating, Barley, Spring (barley, spring; 125 g ai/ha): 70
Plant response rating, Barley, Spring (barley, spring; 250 g ai/ha): 85
Plant response rating, Barley, Winter (barley, winter; 31 g ai/ha): 10
Plant response rating, Barley, Winter (barley, winter; 62 g ai/ha): 35
Plant response rating, Barley, Winter (barley, winter; 125 g ai/ha): 60
Plant response rating, Barley, Winter (barley, winter; 250 g ai/ha): 65
Chickweed plant response rating (chickweed; Postemergence, 31 g ai/ha): 75
Chickweed plant response rating (chickweed; Postemergence, 125 g ai/ha): 70
Chickweed plant response rating (chickweed; Postemergence, 250 g ai/ha): 85
Chickweed plant response rating (chickweed; postemergence, 62 g ai/ha): 75
Plant response rating, Buckwheat, Wild (buckwheat, wild; 31 g ai/ha): 100
Plant response rating, Buckwheat, Wild (buckwheat, wild; 62 g ai/ha): 100
Plant response rating, Buckwheat, Wild (buckwheat, wild; 125 g ai/ha): 100
Plant response rating, Buckwheat, Wild (buckwheat, wild; 250 g ai/ha): 100
Galium plant response rating (galium; Postemergence, 31 g ai/ha): 75
Galium plant response rating (galium; Postemergence, 125 g ai/ha): 75
Galium plant response rating (galium; Postemergence, 250 g ai/ha): 85
Galium plant response rating (galium; postemergence, 62 g ai/ha): 75
Plant response rating, Pigweed (pigweed; 62 g ai/ha): 95
Plant response rating, Pigweed (pigweed; 125 g ai/ha): 100
Plant response rating, Pigweed (pigweed; 250 g ai/ha): 100
